Literature values in publication PMC7395068, “The evolution of strategies to minimise the risk of human drug-induced liver injury (DILI) in drug discovery and development” (Archives of Toxicology, 2020).
Read-outs that look alike come from different tables or passages of the source.

Assays:
[1] = cited from earlier work
RMPCC's = conditions: cited from earlier work
[2] = tested on: primary human hepatocytes, NIH3T3 fibroblasts, BSEP, CYP3A4; conditions: In vitro Assay; ref Schadt 2015; cited from earlier work
HepG2 cells [3] = conditions: cited from earlier work
human hepatocytes = conditions: cited from earlier work
[4] = cited from earlier work; remark: listed apart in the source
hu-MPCC = conditions: cited from earlier work
PHH = conditions: cited from earlier work
hLiMTs = conditions: cited from earlier work
[5] = tested on: THLE-Null and THLE-3A4 cells; conditions: In vitro Assay; ref Gustafsson 2014; cited from earlier work
[6] = tested on: THLE or HepG2 cells, isolated mitochondria, BSEP; conditions: In vitro Assay; ref Aleo 2019; cited from earlier work
[7] = tested on: HepG2 C3A spheroid, BSEP, Glu/Gal in HepG2 cells, bioactivation; conditions: cited from earlier work
PHH spheroids = conditions: In vitro Assay; ref Vorrink 2018; cited from earlier work
[8] = tested on: HepG2 cells, primary human hepatocytes; conditions: cited from earlier work
HepG2 cells [9] = conditions: cited from earlier work; remark: listed apart in the source
[10] = ref Chen 2011; cited from earlier work
[11] = tested on: isolated mouse liver mitochondria; conditions: In vitro Assay; ref Porceddu 2012; cited from earlier work
rBsep = conditions: In vitro Assay; ref Dawson 2012; cited from earlier work
[12] = In vitro Assay, ref Khetani 2012
[13] = In vitro Assay, ref O'Brien 2006
[14] = In vitro Assay, ref Proctor 2017
[15] = In vitro Assay, ref Garside 2014
[16] = In vitro Assay, ref Persson 2013

| Structure (SMILES) | In vivo DILI ([1]; ref Khetani 2012) | In vivo DILI ([1]; ref Schadt 2015) | In vivo DILI ([1]; ref Xu 2008) | RMPCC's (RMPCC's; [12]) | Cellular toxicity (3T3 cells) [2] | Combined Assay [2] | GSH adduct HML [2] | Hepatocyte cellular toxicity [2] | MitoTox 3T3 [2] | Structural based (HCI) (human hepatocytes; In vitro Assay, ref Xu 2008) | DILI +VE (5-8), DILI -VE (-4) ([4]; ref Chen 2016) | DILI severity category ([4]; ref Chen 2016) | HMPCC's (hu-MPCC; [12]) | In vivo DILI ([1]; […]) | In vivo DILI ([1]; ref Aleo 2019) | Partition Hybrid HRM Score [6] | Ro2 Hybrid HRM Score [6] | In vivo DILI ([1]; ref Vorrink 2018) | hLiMTs ATP <20 x Cmax (PHH spheroids) | DILI Score (FDA) (1-8) [10] | also measured |
| --- | --- | --- | --- | --- | --- | --- | --- | --- | --- | --- | --- | --- | --- | --- | --- | --- | --- | --- | --- | --- | --- |
| CC(=O)Oc1ccccc1C(=O)O [aspirin] | -VE | -VE | -VE | -VE | -VE | -VE | -VE | -VE | -VE | -VE | +VE | vLess-DILI-Concern | -VE |  |  |  |  |  |  |  | In vivo DILI ([1]; ref O'Brien 2006): +VE; TDI CYP3A4 [2]: -VE; hBSEP inhibition [2]: -VE; Structural based (HCI) (HepG2 cells [3]; [13]): +VE |
| CCc1oc2ccccc2c1C(=O)c1cc(Br)c(O)c(Br)c1 [benzbromarone] | +VE |  | +VE | +VE |  |  |  |  |  | +VE | +VE | vMost-DILI-Concern | +VE | +VE | +VE | +VE | +VE |  |  |  | In vivo DILI ([1]; ref Gustafsson 2014): +VE; In vivo DILI ([1]; ref Proctor 2017): +VE; In vivo DILI ([1]; ref Williams 2019): +VE; PHH ATP <100uM (PHH; [14]): +VE (IC50 threshold of 100 µM); hLiMTs ATP <100uM (hLiMTs; [14]): +VE (IC50 threshold of 100 µM); THLE-Null [5]: +VE; THLE-Null/3A4 [5]: +VE; Bayesian Machine Learning ([7]; In vitro Assay, ref Williams 2019): +VE |
| CNCCC(Oc1ccc(C(F)(F)F)cc1)c1ccccc1 (centres unmarked) [fluoxetine] | -VE | -VE | -VE |  | +VE | -VE | -VE | -VE | -VE |  | +VE | vLess-DILI-Concern |  | -VE | +VE |  |  | -VE | -VE | 3 | In vivo DILI ([1]; ref Garside 2014): +VE; In vivo DILI ([1]; ref Persson 2013): +VE; In vivo DILI ([1]; ref Proctor 2017): +VE; In vivo DILI ([1]; ref Tolosa 2012): +VE; In vivo DILI ([1]; ref Williams 2019): +VE; RMPCC's (RMPCC's): -VE; TDI CYP3A4 [2]: -VE; hBSEP inhibition [2]: -VE; PHH ATP <100uM (PHH): -VE; hLiMTs ATP <100uM (hLiMTs): +VE (key: +VE: IC50 threshold of 100 µM); Cluster 1-6 +VE Assay [8]: +VE; Structural based (HCI) (human hepatocytes): -VE; Cluser analysis (HepG2 cells [9]): +VE; HMPCC's (hu-MPCC): -VE; Bayesian Machine Learning [7]: +VE |
| CC(C(=O)O)c1ccc(-c2ccccc2)c(F)c1 (centres unmarked) [flurbiprofen] | +VE | -VE | +VE | +VE | -VE | -VE | -VE | -VE | -VE | +VE | -VE | Ambiguous DILI-concern | +VE |  |  | +VE | +VE |  |  | 3 | In vivo DILI ([1]; ref Garside 2014): +VE; In vivo DILI ([1]; ref Gustafsson 2014): +VE; TDI CYP3A4 [2]: -VE; hBSEP inhibition [2]: -VE; THLE-Null [5]: -VE; THLE-Null/3A4 [5]: -VE; Cluster 1-6 +VE Assay [8, 15]: -VE |
| CCN(CC)CC(=O)Nc1c(C)cccc1C [lidocaine] |  |  |  | +VE |  |  |  |  |  |  |  |  | +VE |  |  |  |  |  |  |  | Structural based (HCI) (HepG2 cells [3]; [13]): +VE; Cluser analysis (HepG2 cells [9]; [16]): -VE; Structural based (HCI) (HepG2 cells [9]; [16]): -VE; in vitro data EC20<=2uM [11]: +VE |
| Cc1cccc(Nc2ccccc2C(=O)O)c1C [mefenamic acid] | +VE |  | +VE | +VE |  |  |  |  |  | +VE | +VE | vMost-DILI-Concern | +VE | +VE |  |  |  | +VE | +VE (IC20 < 20 × Cmax.tot cut-off) |  | In vivo DILI ([1]; ref Porceddu 2012): +VE; In vivo DILI ([1]; ref Proctor 2017): -VE; PHH ATP <100uM (PHH; [14]): +VE (IC50 threshold of 100 µM); hLiMTs ATP <100uM (hLiMTs; [14]): +VE (IC50 threshold of 100 µM); in vitro data EC2<=1x Cmax [11]: +VE; in vitro data EC20<=2uM [11]: +VE |
| Cn1cc[nH]c1=S [methimazole] |  |  |  | -VE |  |  |  |  |  |  |  |  | -VE |  |  | -VE | -VE |  |  |  | Inhibition of rBsep cutoff<1& cmax u>.2 (rBsep): -VE; Inhibition of rBsep cutoff<3 (rBsep): -VE |
| CNCCC=C1c2ccccc2CCc2ccccc21 [nortriptyline] | +VE |  | +VE | +VE |  |  |  |  |  | -VE | +VE | vMost-DILI-Concern | +VE |  | +VE | +VE | +VE | +VE | +VE (IC20 < 20 × Cmax.tot cut-off) | 8 |  |
| CN1C(C(=O)Nc2ccccn2)=C(O)c2ccccc2S1(=O)=O [piroxicam] | +VE | -VE | +VE | +VE | -VE | -VE | -VE | -VE | -VE | -VE | +VE | vLess-DILI-Concern | -VE | +VE | +VE | -VE | +VE | +VE | -VE | 3 | In vivo DILI ([1]; ref O'Brien 2006): +VE; In vivo DILI ([1]; ref Persson 2013): +VE; In vivo DILI ([1]; ref Porceddu 2012): +VE; TDI CYP3A4 [2]: -VE; hBSEP inhibition [2]: -VE; Structural based (HCI) (HepG2 cells [3]; [13]): +VE; Cluser analysis (HepG2 cells [9]; [16]): -VE; Structural based (HCI) (HepG2 cells [9]; [16]): -VE; in vitro data EC2<=1x Cmax [11]: +VE; in vitro data EC20<=2uM [11]: +VE |
| CC(=O)[C@H]1CC[C@H]2[C@@H]3CCC4=CC(=O)CC[C@]4(C)[C@H]3CC[C@]12C [progesterone] | +VE |  | +VE | -VE |  |  |  |  |  | -VE | +VE | vLess-DILI-Concern | -VE | -VE |  |  |  | -VE | -VE |  |  |
| NC(=O)c1cnccn1 [pyrazinamide] | +VE |  | +VE | -VE |  |  |  |  |  | -VE | +VE | vLess-DILI-Concern | +VE | +VE | +VE | +VE | -VE |  |  | 3 | In vivo DILI ([1]; ref Garside 2014): +VE; In vivo DILI ([1]; ref O'Brien 2006): +VE; In vivo DILI ([1]; ref Porceddu 2012): +VE; Cluster 1-6 +VE Assay [8, 15]: -VE; Structural based (HCI) (HepG2 cells [3]; [13]): +VE; in vitro data EC2<=1x Cmax [11]: +VE; in vitro data EC20<=2uM [11]: +VE |
| C=C[C@H]1C[N@@]2CC[C@H]1C[C@H]2[C@H](O)c1ccnc2ccc(OC)cc12 [quinine] |  |  |  |  |  |  |  |  |  |  |  |  |  |  |  |  |  |  | +VE (IC20 < 20 × Cmax.tot cut-off) |  | In vivo DILI ([1]; in vivo): +VE; RMPCC's (RMPCC's): +VE; Structural based (HCI) (HepG2 cells [3]): +VE; DILI +VE (5-8), DILI -VE (-4) ([4]; in vivo): +VE; DILI severity category ([4]; in vivo): vLess-DILI-Concern; HMPCC's (hu-MPCC): +VE |
| O=c1n(CCCN2CCN(c3cccc(Cl)c3)CC2)nc2ccccn12 [trazodone] | +VE |  | +VE | +VE |  |  |  |  |  | +VE | +VE | vLess-DILI-Concern | +VE |  | +VE | +VE | +VE | +VE | +VE (IC20 < 20 × Cmax.tot cut-off) | 5 |  |
